Experimental data published in US8710088B2, “Pharmaceutical and diagnostic compositions for use in the treatment and diagnosis of neurodegenerative diseases or amyloid diseases” (Max-Delbruck-Centrum fur Molekulare Medizin, priority 2004, dated 2014).

Assays:
[1] = target: T1, wild type Aβ1-42 (Homo sapiens, UniProt P05067); assay: aggregation assay with wild type Aβ1-42, membrane filter method; format: biochemical; conditions: peptide 15 μM, pH 7.4, 42 h, 37° C.
T1 construct: non-mutated (wild type) Aβ1-42
T1 sequence (P05067 672-713 limits assumed): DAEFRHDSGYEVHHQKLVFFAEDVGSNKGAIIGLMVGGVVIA
Procedure: Analogously, the compounds were also examined in aggregation assays with the amyloid β-peptide Aβ1-42(E22Q), which is a particularly rapidly aggregating variant of amyloid β, as well as with non-mutated (wild type) Aβ1-42. For this purpose, the peptide was incubated at a concentration of 15 μM in a phosphate buffer with a physiological pH value of 7.4 for 42 h at 37° C. and subsequently, aliquots were examined by means of the membrane filter method (Figure) or electron microscopy (Figures) as well. […] Cell viability measurements were carried out in neuronally differentiated PC12 cells to which beta-amyloid and the substances to be tested were added extracellularly in order to examine whether the compounds are able to reduce toxicity caused by amyloid-beta. After 48 h the viability of the cells (approximately corresponds to the number of vital cells) was measured.

[2] = tested on: huntingtin-Exon-1 with 103 glutamines (Htt103Q-EGFP); assay: stably transfected PC12 cell line with inducible Htt103Q-EGFP, membrane filter test; format: cell-based; conditions: muristerone induced, 44 h, membrane filter method
Procedure: The compounds were additionally tested in a stably transfected PC12 cell line. This cell line was transfected with an ecdysone-inducible plasmid whose N-terminal codes for huntingtin-Exon-1 marked with GFP with 103 glutamines (Htt103Q-EGFP). The Htt103Q-EGFP expression was induced with muristerone and the cells were subsequently cultivated for 44 h in the presence of solvents or the chemical agents. Subsequently, the amount of aggregate was determined with the help of the membrane filter test as described by Heiser et al. (2002). Furthermore, the amount of aggregate was determined with the help of a fluorescence measurement (data not shown). […] The latter could be deduced from the total amount of protein in the cell lysate (FIG. 2B) which was determined with the help of cell extracts.

[3] = target: T2, huntingtin (Homo sapiens, UniProt P42858, INS38QQQQQQQQQQQQQQQQQQQQQQQQQQQQQQ); assay: cell culture model of Huntington's chorea: COS1 cells transfected with pTL1-CAG51, membrane filter test; format: cell-based; conditions: 40-44 h, membrane filter method
T2 construct: expressed in transfected cells; host or cells: COS1 cells, transient transfection
T2 sequence (P42858 with tags, fused parts or gaps with the stated changes limits assumed): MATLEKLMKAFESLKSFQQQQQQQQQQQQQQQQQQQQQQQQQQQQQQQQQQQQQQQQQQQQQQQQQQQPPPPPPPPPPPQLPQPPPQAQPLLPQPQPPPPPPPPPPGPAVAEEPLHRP
Procedure: The compounds were then tested in several cell culture models of polyglutamine diseases, inter alia Huntington's chorea. For this purpose, COS1 cells were transiently transfected with the plasmid pTL1-CAG51 already described above (Sittler, A., Walter, S., Wedemeyer, N., Hasenbank, R., Scherzinger, E., Eickhoff, H., Bates, G. P., Lehrach, H. and Wanker, E. E. (1998) Mol Cell 2, 427-36) and cultivated for 44 h in the presence of solvents or the chemical agents. Subsequently, the amount of aggregate was determined with the help of the membrane filter test as described by Heiser et al. (2002). […] The latter could be deduced from the total amount of protein in the cell lysate (FIG. 2B) which was determined with the help of cell extracts.
7-Amino-8-(2,4-dihydroxy-6-methyl-phenyl)-1,9-dimethyl-phenoxazine-3-one was then tested in a cell culture model of Huntington's chorea. For this purpose, COS1 cells were transiently transfected with the plasmid pTL1-CAG51 already described above (Sittler, A., Walter, S., Wedemeyer, N., Hasenbank, R., Scherzinger, E., Eickhoff, H., Bates, G. P., Lehrach, H. and Wanker, E. E. (1998) Mol Cell 2, 427-36) and cultivated for 40-44 h in the presence of solvents or 7-amino-8-(2,4-dihydroxy-6-methyl-phenyl)-1,9-dimethyl-phenoxazine-3-one. Subsequently, the amount of aggregate was determined with the help of the membrane filter test as described by Heiser et al. (2002). […] The latter could be deduced from the total amount of protein (FIG. 2B) which was determined with the help of cell extracts.

[4] = target: T3, mutant huntingtin (GST fusion protein GST-HDQ51) (Homo sapiens, UniProt P42858, INS38QQQQQQQQQQQQQQQQQQQQQQQQQQQQQQ); assay: in vitro aggregation of mutant huntingtin, membrane filter test; format: biochemical; conditions: membrane filter method
T3 construct: GST (N)
T3 sequence (P42858 with tags, fused parts or gaps with the stated changes limits assumed): as the sequence (P42858 with tags, fused parts or gaps with the stated changes limits assumed) above
Procedure: As in the tests described by Heiser et al. (2002), the protein was used for aggregation tests to which either only solvent or solvent and the chemical agent in question was added. Aliquots of these batches were examined by means of the membrane filter test and electron microscopy.
As in the tests described by Heiser et al. (2002), the protein was used for aggregation tests to which either only solvent or solvent and 7-amino-8-(2,4-dihydroxy-6-methyl-phenyl)-1,9-dimethyl-phenoxazine-3-one was added. Aliquots of these batches were examined by means of the membrane filter test (FIG. 1B) and electron microscopy (FIGS. 1E and 1F).

[5] = tested on: alpha-synuclein; assay: alpha-synuclein amyloid fibril formation, electron microscopy; format: biochemical; conditions: wild type protein or mutant (A53T)
From the text: For this purpose, the wild type protein or a mutant (A53T) was used.

[6] = target: amyloid-beta fibrils (Homo sapiens, UniProt P05067); assay: binding to amyloid-beta aggregates located on a cellulose acetate membrane; conditions: colored substances
Sequence of amyloid-beta fibrils (P05067 672-713 limits assumed): as the sequence (P05067 672-713 limits assumed) above
From the text: FIG. 16: Binding to amyloid-beta aggregates located on a cellulose acetate membrane

CC1=Nc2cccc3cccc(c23)N1C [1,2-dimethyl-1H-perimidine]
Inhibition of the aggregation of wild type Aβ1-42 (SDS-insoluble aggregates) [1]: Inhibition of the aggregation

Cc1cc(=O)cc2oc3cccc(C)c3nc1-2 [1,9-dimethyl-phenoxazine-3-one]
Inhibition of the aggregation of wild type Aβ1-42 (SDS-insoluble aggregates) [1]: Inhibition of the aggregation

S=C1Nc2cccc3cccc(c23)N1 [1H,3H-perimidine-2-thione]
Inhibition of the aggregation of wild type Aβ1-42 (SDS-insoluble aggregates) [1]: Inhibition of the aggregation

c1cc2c3c(cccc3c1)NC(c1c[nH]cn1)=N2 [2-(1H-imidazole-4-yl)-1H-perimidine, 2-(1H-Imidazole-4-yl)-1H-perimidine]
Inhibition of the aggregation of wild type Aβ1-42 (SDS-insoluble aggregates) [1]: Inhibition of the aggregation

CN(C)CCCNc1nc2c(ccc3[nH]c(=O)c(C#N)cc32)s1 [2-(3-dimethylamino-propylamino)-7-oxo-6,7-dihydro-thiazolo[4,5-f]quinoline-8-carbonitrile]
Inhibition of the aggregation of huntingtin (Exon-1) in mammalian cells [2]: Inhibition of the aggregation

N#Cc1cc2c(ccc3sc(N)nc32)[nH]c1=O [2-Amino-7-oxo-6,7-dihydro-thiazolo[4,5-f]quinoline-8-carbonitrile]
Inhibition of the aggregation of huntingtin (Exon-1) in mammalian cells [2]: Inhibition of the aggregation

COC(=O)C1CC2=C(Cc3ccccc32)CN1c1ccco1 (centres unmarked) [2-Furan-2-yl-2,3,4,9-tetrahydro-1H-indenol[2,3-c]pyridine-3-carboxylic acid methyl ester]
Inhibition of the aggregation of wild type Aβ1-42 (SDS-insoluble aggregates) [1]: Inhibition of the aggregation

CCN(CC)CCN(CC)c1nc2c(ccc3[nH]c(=O)c(C#N)cc32)s1 [2-[(2-diethylamino-ethyl)-ethyl-amino]-7-oxo-6,7-dihydro-thiazolo[4,5-f]quinoline-8-carbonitrile]
Inhibition of the aggregation of huntingtin (Exon-1) in mammalian cells [2]: Inhibition of the aggregation

CN(C)CCN(Cc1ccccc1)c1nc2c(ccc3[nH]c(=O)c(C#N)cc32)s1 [2-[Benzyl-(2-dimethylamino-ethyl)-amino]7-oxo-6,7-dihydro-thiazolo[4,5-f]quinoline-8-carbonitrile]
Inhibition of the aggregation of huntingtin (Exon-1) in mammalian cells [2]: Inhibition of the aggregation

Cc1ccc(C2=Nc3cccc4cccc(c34)N2)cc1 [2-p-tolyl-1H-perimidine]
Inhibition of the aggregation of wild type Aβ1-42 (SDS-insoluble aggregates) [1]: Inhibition of the aggregation

c1cncc(C2=Nc3cccc4cccc(c34)N2)c1 [2-pyridine-3-yl-1H-perimidine]
Inhibition of the aggregation of wild type Aβ1-42 (SDS-insoluble aggregates) [1]: Inhibition of the aggregation

C1=CC2=Nc3ccccc3OC2=CC1 [3H-phenoxazine, 3H-Phenoxazine]
Inhibition of the aggregation of huntingtin in mammalian cells [3]: Inhibition of the aggregation

N#Cc1ccc(C2=Nc3cccc4cccc(c34)N2)cc1 [4-(1H-perimidine-2-yl)-benzonitrile]
Inhibition of the aggregation of wild type Aβ1-42 (SDS-insoluble aggregates) [1]: Inhibition of the aggregation

CCOC(=O)C(CC(C)C)c1nc(-c2ccccc2)ns1 (centres unmarked) [4-methyl-2-(3-phenyl-[1,2,4]thiadiazole-5-yl)-pentanoic acid ethyl ester]
Inhibition of the aggregation of huntingtin in mammalian cells [3]: Inhibition of the aggregation

O=C(Nc1nccs1)c1ccc(-c2ccc(C(=O)Nc3nccs3)o2)cc1 [5-[4-(Thiazole-2-ylcarbamoyl)-phenyl]-furan-2-carboxylic acid thiazole-2-ylamide]
Inhibition of the aggregation of huntingtin in mammalian cells [3]: Inhibition of the aggregation

N#Cc1cc2c(ccc3sc(NCCN4CCCCC4)nc32)[nH]c1=O [7-Oxo-2-(2-piperidine-1-yl-ethylamino)-6,7-dihydrothiazolo[4,5-f]quinoline-8-carbonitrile]
Inhibition of the aggregation of huntingtin (Exon-1) in mammalian cells [2]: Inhibition of the aggregation

Cc1cc(=O)cc2oc3cc(N)cc(C)c3nc1-2 [7-amino-1,9-dimethyl-phenoxazine-3-one]
Inhibition of the aggregation of huntingtin in mammalian cells [3]: Inhibition of the aggregation

Cc1cc(=O)cc2oc3cc(O)cc(C)c3nc1-2 [7-hydroxy-1,9-dimethyl-phenoxazine-3-one]
Inhibition of the aggregation of wild type Aβ1-42 (SDS-insoluble aggregates) [1]: Inhibition of the aggregation

CN1C(CO)=Nc2cccc3cccc1c23 [(1-methyl-1H-perimidine-2-yl)-methanol]
Inhibition of the aggregation of huntingtin (Exon-1) (SDS-insoluble aggregates) [4]: Inhibition of the aggregation

O=C(O[C@@H]1Cc2c(O)cc(O)cc2O[C@H]1c1cc(O)c(O)c(O)c1)c1cc(O)c(O)c(O)c1 [GCG, (−)-Gallocatechin gallate]
Inhibition of the aggregation of alpha-synuclein (amyloid fibrils) [5]: Inhibition of the aggregation

CC(=O)N(CCN(C)C)c1nc2c(ccc3[nH]c(=O)c(C#N)cc32)s1 [N-(8-Cyano-7-oxo-6,7-dihydro-thiazolo[4,5-f]quinoline-2-yl)-N-(2-dimethylamino-ethyl)-acetamide]
Inhibition of the aggregation of huntingtin (Exon-1) in mammalian cells [2]: Inhibition of the aggregation

CN(C)CCN(C=O)c1nc2c(ccc3[nH]c(=O)c(C#N)cc32)s1 [N-(8-Cyano-7-oxo-6,7-dihydro-thiazolo[4,5-f]quinoline-2-yl)-N-(2-dimethylamino-ethyl-formamide]
Inhibition of the aggregation of huntingtin (Exon-1) in mammalian cells [2]: Inhibition of the aggregation

CN(C)CCCN(C=O)c1nc2c(ccc3[nH]c(=O)c(C#N)cc32)s1 [N-(8-Cyano-7-oxo-6,7-dihydro-thiazolo[4,5-f]quinoline-2-yl)-N-(3-dimethylamino-propyl)-formamide]
Inhibition of the aggregation of huntingtin (Exon-1) in mammalian cells [2]: Inhibition of the aggregation

Cc1cc(O)cc(O)c1-c1c(N)cc2oc3cc(=N)c(-c4c(C)cc(O)cc4O)c(C)c-3nc2c1C [beta-amino-orceimine]
direct binding to amyloid-beta fibrils [6]: bind directly to amyloid-beta fibrils

Cc1cc(O)cc(O)c1-c1c(N)cc2oc3cc(=O)c(-c4c(C)cc(O)cc4O)c(C)c-3nc2c1C [beta-amino-orcein]
Inhibition of the aggregation of huntingtin in mammalian cells [3]: Inhibition of the aggregation
direct binding to amyloid-beta fibrils [6]: bind directly to amyloid-beta fibrils

Cc1cc(O)cc(O)c1-c1c(O)cc2oc3cc(=O)c(-c4c(C)cc(O)cc4O)c(C)c-3nc2c1C [beta-hydroxy-orcein]
Inhibition of the aggregation of wild type Aβ1-42 (SDS-insoluble aggregates) [1]: Inhibition of the aggregation
direct binding to amyloid-beta fibrils [6]: bind directly to amyloid-beta fibrils

O=c1ccc2nc3ccccc3oc-2c1 [phenoxazin-3-one]
Inhibition of the aggregation of huntingtin in mammalian cells [3]: Inhibition of the aggregation

c1ccc2c(c1)Nc1ccccc1O2 [phenoxazine]
direct binding to amyloid-beta fibrils [6]: bind directly to amyloid-beta fibrils

O=c1ccc2nc3ccccc3oc-2c1 [phenoxazone]
direct binding to amyloid-beta fibrils [6]: bind directly to amyloid-beta fibrils

alpha-amino-orceimine
direct binding to amyloid-beta fibrils [6]: bind directly to amyloid-beta fibrils

alpha-hydroxy-orcein
Inhibition of the aggregation of huntingtin in mammalian cells [3]: Inhibition of the aggregation
direct binding to amyloid-beta fibrils [6]: bind directly to amyloid-beta fibrils

gamma-amino-orcein
direct binding to amyloid-beta fibrils [6]: bind directly to amyloid-beta fibrils
